Results as given in US20150250864A1, “ANTI-CANCER VACCINES” (Board of Regents, The University of Texas System, priority 2012, published 2015).

What was measured:
Format in all cases: cell-based, human
[1] = test system: T cells in PBMCs; experiment: IL-2 release by ELISA from PBMC stimulated with peptides or protein; settings: normal donors vs cancer patients
Description: (§1) FIG. 19. T cell stimulation by HERV-K peptides. Peptides (p73-76 and p18-135) or HERV-K SU fusion proteins were used to stimulate PBMC and evaluated in vitro for their ability to stimulate T cells in PBMCs from healthy subjects and/or cancer patients, based on Granzyme B (Top panel) and interlukin-2 (IL-2; bottom panel) release by ELISA. OD values of Granzyme B or IL-2 release were compared between normal donors (ND427478, ND329966, and ND341277) and cancer patients (BC243 and OC212).
(§2) Cancer patients were enrolled to evaluate HERV-K as a tumor associated antigen target. Patients provided written informed consent as part of an approved protocol (LAB04-0083) at MD Anderson Cancer Center prior to commencing the studies. […] HLA-A*02 expression in PBMCs obtained from cancer patients and healthy subjects was determined by flow cytometry with PE Mouse anti-human HLA-A2 mAb BB7.2 (BD Pharmingen; San Diego, Calif., USA). […] After 14 days of culture, the supernatants from cell culture media (PBMC pulsed with peptides or proteins) were harvested and tested for their ability to produce IFN-gamma or IL-2, and granzyme B release was also determined by enzyme-linked immunosorbent assay (ELISA) assay. […] Absorbance was measured after 10 min of incubation in the dark and the plate was read on a Wallac Victor 2 V Microplate Reader (PerkinElmer, Waltham, Mass.). […]

[2] = test system: T cells in PBMCs; experiment: Granzyme B release by ELISA from PBMC stimulated with peptides or protein; settings: breast cancer patient (BC243) vs 3 normal donors
Description: as §1, §2

[3] = test system: T cells in PBMCs; experiment: IFN-γ release by ELISA from PBMC stimulated with peptides or protein; settings: for IFN-γ release (OD values): stimulated PBMC, FIG. 21A
Description: FIG. 17. T cell stimulation by HERV-K peptides. Peptides (p73-76 and p18-135) or HERV-K SU fusion proteins were used to stimulate PBMC and evaluated in vitro for their ability to stimulate T cells in PBMCs from healthy subjects (ND1007083; left) and/or cancer patients (BC 243; right), based on interferon-γ(IFN-γ) release by ELISA. KLH peptide and GST protein were used as controls. Other negative controls included media only, DMSO, and PBS.
FIG. 18. T cell stimulation by HERV-K peptides. Peptides (p73-76: left; and p18-135: middle) or HERV-K SU fusion proteins (right) were used to stimulate PBMC and evaluated in vitro for their ability to stimulate T cells in PBMCs from healthy subjects and/or cancer patients (BC 243; middle), based on interferon-γ (IFN-γ) release by ELISA. OD values of interferon-γ (IFN-γ) release were compared between normal donors (ND447549, ND1001366, and ND1007083) and cancer patients (OC222, OC 210, OC212, and BC243). OC is ovarian cancer and BC is breast cancer
FIGS. 21A-C. T Cell Stimulation. 9 mer Peptides (HERVK-3, HERVK-4, HERVK-11, and HERVK-18; see Table 1), p73-76 and p18-135 (Table 1 178 and 179), or HERV-K SU fusion proteins were used to stimulate PBMC and evaluated in vitro for their ability to stimulate T cells in PBMCs from healthy subjects and/or cancer patients, based on IFN-γ and Granzyme B release by ELISA. (FIG. 21A) OD values of IFN-γ release were compared in a normal donor (ND291812). (FIG. 21B) OD values of IFN-γ release were compared between a normal donor (ND291817) and an ovarian cancer patient (OC153). (FIG. 21C) OD values of Granzyme B release were compared between a normal donor (ND291817) and an ovarian cancer patient (OC153). Each dot represents an individual clone. Negative controls measured release of effector molecules from cancer cells after treatment with supernatants obtained from PBMCs without stimulation with HERV-K peptides or protein; positive controls were stimulated with PMA/ONO.
Cancer patients were enrolled to evaluate HERV-K as a tumor associated antigen target. Patients provided written informed consent as part of an approved protocol (LAB04-0083) at MD Anderson Cancer Center prior to commencing the studies. Normal healthy donor control blood samples were obtained from Gulf Coast Regional Blood Center, Houston Tex. 40 mL of peripheral blood was obtained from each patient, and peripheral blood mononuclear cells (PBMCs) were isolated by density gradient centrifugation using Histopaque-1077 (Sigma-Aldrich; USA). HLA-A*02 expression in PBMCs obtained from cancer patients and healthy subjects was determined by flow cytometry with PE Mouse anti-human HLA-A2 mAb BB7.2 (BD Pharmingen; San Diego, Calif., USA). Mouse IgG2b was used as an isotype control. PBMCs (5×10^5 cells/well) from either healthy subjects or cancer patients were incubated with Peptide #18-135 ([…]; SEQ ID NO: 178), Peptide #73-76 ([…]; SEQ ID NO: 179) or KLH as control peptide) or proteins (HERV-K env SU protein or GST protein as control) at concentrations of 40 μg/mL in 96-well U-bottom microplates (BD; Franklin Lakes, N.J., USA) in 100 μL of T-cell medium (TCM), consisting of RPMI 1640 (Mediatech; Manassas, Va., USA), 10% human AB serum (Valley Biomedical, Winchester, USA), […] 2-mercaptoethanol, 100 IU/mL interleukin-2 (IL-2), and 0.1 mM MEM nonessential amino acid solution (Invitrogen; Grand Island, N.Y., USA). Half of the TCM was removed and replaced with fresh TCM containing peptides (20 μg/mL) on day 7. After 14 days of culture, the supernatants from cell culture media (PBMC pulsed with peptides or proteins) were harvested and tested for their ability to produce IFN-gamma or IL-2, and granzyme B release was also determined by enzyme-linked immunosorbent assay (ELISA) assay. In order to detect the secreted cytokine in this assay, high-binding plates were coated with 5 μg/ml anti-IFN-γ (Mabtech, Stockholm, Sweden) diluted in PBS buffer at 4° C. overnight. […]

[4] = test system: IVS cells; experiment: IFN-γ ELISPOT of IVS cells stimulated with HERV-K SU or TM antigen; settings: ovarian cancer patient compared with normal female donor(s)
Description: FIGS. 2A-D. IFN-γ ELISPOT was used to determine HERV-K-specific T cell response. (FIG. 2A) More spots (red box) were detected in IVS cells (DC+KSU) from an ovarian cancer patient with moderately to poorly differentiated adenocarcinoma, in comparison to three normal female donors (ND263559, 273010, and 273011; black boxes) stimulated with a single HERV-K SU protein. […] (FIG. 2B) More spots (red box for KSU and green box for KTM) were detected in IVS cells (DC+KSU) from an ovarian cancer patient (Acc 153) with high grade papillary serous carcinoma before surgery (0 month) or after surgery (6 months), compared to one normal donor (ND 273011) stimulated one time with HERV-K SU protein. IVS cells were generated from PBMC stimulated with a single HERV-K SU or TM antigen. No spot was detected in controls using KLH as antigen. (FIG. 2C) IFN-γ spots were detected in IVS cells (1×10^5 cells loaded) from cancer patients (#816463 and #618329: blood collected 6 months after surgery) but not in a breast cancer patient with invasive ductal carcinoma (#814349, collected 6 months after surgery) or a patient (717335) with a mass (no malignancy identified), stimulated one time with either HERV-K SU (surface domain of env protein) or TM (transmembrane domain) protein. DC pulsed with KLH served as control. […]

| Substance | IL-2 release [1] | granzyme B release [2] | IFN-γ release ([3]; peripheral T cells from most cancer patients (OC222, OC210, OC212, BC 243)) | IFN-γ release (OD values) [3] | IFN-γ release ([3]; peripheral T cells from both healthy subjects (ND1007083) and cancer patients (BC 243)) | number of IFN-γ spots in IVS cells [4] |
| --- | --- | --- | --- | --- | --- | --- |
| SQTITCENCRLLSCIDSTFNWQHRILL [Peptide #73-76] | in normal donors to a greater extent than in cancer patients | to a greater extent than in 3 normal donors | induce IFN-γ release | Higher IFN-γ release |  |  |
| IINLILILVCLFCLLLVCRCTQQLR [Peptide #18-135] | in normal donors to a greater extent than in cancer patients | to a greater extent than in 3 normal donors |  | Higher IFN-γ release | induce IFN-γ release |  |
| keyhole limpet hemocyanin [KLH] |  |  |  |  |  | No spots were detected |
